# Data: the supplement of paper PMC10307832
# How the values were obtained:
# Assay in all cases: relative viability (nuclei count vs DMSO), 5 days (fraction); higher = more cells survive
# LXF-289 = system: LXF-289
# In short: (§1)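 Relative viability equals treated-well nuclei counts divided by vehicle-well nuclei counts. Counts came from 4× images of lung cancer cell lines grown in 1536-well plates for 5 days after pin-tool dosing on the day after seeding. Dosing used one drug alone or a fixed anchor-drug dose plus five library-drug doses (not always all listed) in √10 steps, and values are medians of duplicate plates.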
# RERF-LC-KJ = system: RERF-LC-KJ
# In short: as §1
# NCI-H1792 = system: NCI-H1792
# In short: as §1
# NCI-H2170 = system: NCI-H2170
# In short: as §1
# NCI-H2347 = system: NCI-H2347
# In short: as §1
# NCI-H1355 = system: NCI-H1355
# In short: as §1
# NCI-H1755 = system: NCI-H1755
# In short: as §1
# NCI-H596 = system: NCI-H596
# In short: as §1
# NCI-H727 = system: NCI-H727
# In short: as §1
# NCI-H1651 = system: NCI-H1651
# In short: as §1
# SK-MES-1 = system: SK-MES-1
# In short: as §1
# NCI-H1915 = system: NCI-H1915
# In short: as §1
# NCI-H460 = system: NCI-H460
# In short: as §1
# NCI-H322M = system: NCI-H322M
# In short: as §1
# NCI-H3122 = system: NCI-H3122
# In short: as §1
# NCI-H520 = system: NCI-H520
# In short: as §1
# NCI-H441 = system: NCI-H441
# In short: as §1
# PC-14 = system: PC-14
# In short: as §1
compound,measurement,setting,value
CC(C)Oc1cc(Nc2nc(N[C@@H](C)c3ccc(F)cn3)ncc2Cl)n[nH]1 [AZ23] + CC1(C)CCC(c2ccc(Cl)cc2)=C(CN2CCN(c3ccc(C(=O)NS(=O)(=O)c4ccc(N[C@H](CCN5CCOCC5)CSc5ccccc5)c(S(=O)(=O)C(F)(F)F)c4)cc3)CC2)C1 [Navitoclax] (partner 0.5 µM),relative viability,LXF-289; first compound 0.01 µM,1.08
same,relative viability,LXF-289; first compound 0.03162 µM,0.951
same,relative viability,LXF-289; first compound 0.3162 µM,0.888
same,relative viability,RERF-LC-KJ; first compound 0.01 µM,0.719
same,relative viability,RERF-LC-KJ; first compound 0.03162 µM,1.15
same,relative viability,RERF-LC-KJ; first compound 0.3162 µM,0.879
same,relative viability,NCI-H1792; first compound 0.01 µM,0.763
same,relative viability,NCI-H1792; first compound 0.03162 µM,0.858
same,relative viability,NCI-H1792; first compound 0.3162 µM,0.693
same,relative viability,NCI-H2170; first compound 0.01 µM,0.59
same,relative viability,NCI-H2170; first compound 0.03162 µM,0.687
same,relative viability,NCI-H2170; first compound 0.3162 µM,0.589
same,relative viability,NCI-H2347; first compound 0.01 µM,0.858
same,relative viability,NCI-H2347; first compound 0.03162 µM,0.755
same,relative viability,NCI-H2347; first compound 0.3162 µM,0.818
same,relative viability,NCI-H1355; first compound 0.01 µM,0.999
same,relative viability,NCI-H1355; first compound 0.03162 µM,0.896
same,relative viability,NCI-H1355; first compound 0.3162 µM,0.833
same,relative viability,NCI-H1755; first compound 0.01 µM,1.17
same,relative viability,NCI-H1755; first compound 0.03162 µM,1.11
same,relative viability,NCI-H1755; first compound 0.3162 µM,1.03
same,relative viability,NCI-H596; first compound 0.01 µM,0.854
same,relative viability,NCI-H596; first compound 0.03162 µM,1.04
same,relative viability,NCI-H596; first compound 0.3162 µM,0.747
same,relative viability,NCI-H727; first compound 0.01 µM,0.382
same,relative viability,NCI-H727; first compound 0.03162 µM,0.506
same,relative viability,NCI-H727; first compound 0.3162 µM,0.385
same,relative viability,NCI-H1651; first compound 0.01 µM,0.887
same,relative viability,NCI-H1651; first compound 0.03162 µM,1.11
same,relative viability,NCI-H1651; first compound 0.3162 µM,1.11
same,relative viability,SK-MES-1; first compound 0.01 µM,1.4
same,relative viability,SK-MES-1; first compound 0.03162 µM,1.42
same,relative viability,SK-MES-1; first compound 0.3162 µM,1.33
same,relative viability,NCI-H1915; first compound 0.01 µM,0.799
same,relative viability,NCI-H1915; first compound 0.03162 µM,0.845
same,relative viability,NCI-H1915; first compound 0.3162 µM,0.797
same,relative viability,NCI-H460; first compound 0.01 µM,1.12
same,relative viability,NCI-H460; first compound 0.03162 µM,1.41
same,relative viability,NCI-H460; first compound 0.3162 µM,1.44
same,relative viability,NCI-H322M; first compound 0.01 µM,1.24
same,relative viability,NCI-H322M; first compound 0.03162 µM,1.09
same,relative viability,NCI-H322M; first compound 0.3162 µM,1.29
same,relative viability,NCI-H3122; first compound 0.01 µM,1.11
same,relative viability,NCI-H3122; first compound 0.03162 µM,1.02
same,relative viability,NCI-H3122; first compound 0.3162 µM,1.08
same,relative viability,NCI-H520; first compound 0.01 µM,0.972
same,relative viability,NCI-H520; first compound 0.03162 µM,1.31
same,relative viability,NCI-H520; first compound 0.3162 µM,1.08
same,relative viability,NCI-H441; first compound 0.01 µM,0.518
same,relative viability,NCI-H441; first compound 0.03162 µM,0.755
same,relative viability,NCI-H441; first compound 0.3162 µM,0.769
same,relative viability,PC-14; first compound 0.01 µM,0.989
same,relative viability,PC-14; first compound 0.03162 µM,1.21
same,relative viability,PC-14; first compound 0.3162 µM,1.1
